Test results taken from patent US20240041813A1, “VERY-LONG-CHAIN POLYUNSATURATED FATTY ACIDS, ELOVANOID HYDROXYLATED DERIVATIVES, AND METHODS OF USE” (priority 2020, published 2024).
Entries after “also recorded” stand apart in the source; their conditions may differ.

Key:
TMPRSS2 = TMPRSS2 mRNA by Taqman qPCR in human alveolar cells; assay type: cell-based; conditions: in the presence of IL1β
Procedure: Real-Time PCR using Taqman probes and SYBR green assay. cDNA was produced using lug of total RNA extracted by RNAeasy (Qiagen, Hilden Germany, cat #74104). The first strand of cDNA was produced using iScript™ Reverse Transcription Supermix for RT-qPCR (BioRad cat #1708840). The quantification of Sirt 1, RNF-146, Bcl2, BcL-xl was performed using SYBRgreen assay with primers designed in house (Table 1) using SsoAdvanced Universal SYBR Green Supermix (Biorad cat #1725270). The quantification of ACE2 and TMPRSS2 mRNA was performed using Taqman probes (Biorad cat #qHsaCEP0051563 & qHsaCIP0028919 respectively) labeled with FAM and standardized using PGK1 probe labeled with HEX (Biorad cat #qHsaCEP0050174).

injured rat cornea = assay: Rat cornea alkali burn: corneal RNA-seq, cytokine storm, NFkB/inflammation, senescence, integrin and protease genes; assay type: in vivo
Procedure: The rats were anesthetized by intraperitoneal injection of Ketamine (50-100 mg/kg) plus xylazine (5-10 mg/kg). A 4 mm diameter filter paper soaked in 1 N NaOH was placed on the central cornea of the right eye for 45 seconds, and then the eye was thoroughly washed with […] of saline. After injury, the rats were randomly divided into five treatment groups: vehicle; lipoxin A4 (LXA4) from Cayman Chemical (Ann Arbor, MI, USA); R,R Resolvin D6 isomer (RvD6i), R,R neuroprotection D (NPD1), and elovanoid (ELV)-N32. All lipid solutions were prepared at the final concentration of […] using PBS with the minimal contamination of ethanol by evaporating the ethanol and immediately dissolve the lipids in PBS, then vortex well for 2 min. Topical administration (20 μl) was done 3×/day for 14 days. The experiments were double-blinded with the lipid mediators coded during the whole experiments. At the end of the study, when all data was collected, the code was opened.
Injured corneas (n=5/condition) were harvested and homogenized with TRIzol (Thermo Fisher Scientific) on ice with a glass Dounce homogenizer. RNA sequencing was performed as described^14. Briefly, after mRNA extraction and determination of purity, 8 ng of total RNA was reverse transcribed, and total cDNAs were amplified using ISPCR primer, and the library was made with the Nextera XT DNA library preparation kit (Illumina, San Diego, CA, USA). The libraries were pooled with the same molarity and sequenced using the NextSeq 500/550 High Output Kit v2 (75 cycles, Illumina). After demultiplexing, RNA-seq data were aligned to the Rattus Norvegicus reference genome (.ensembl.org/pub/release-98/fasta/rattus_norvegicus/dna/) using the Subread package v2.0.1 alignment function39. The BAM files for sequencing data alignment were counted using featureCounts function of Subread tool^40 using the macOS Catalina. The raw count data were subjected to differential gene expression analysis using DESeq2 package for R^41 with the vehicle group as reference. The adjusted p-values were named as the false discover rate (FDR).

[1] = rat cornea, RNA-seq 14 days after injury

For `CC/C=C\CC(O)\C=C/C=C/C=C/C(O)C/C=C\C/C=C\CCCCCCCCCCCCC(=O)O` [ELV-N32, (14Z,17Z,20R,21E,23E,25Z,27S,29Z)-20,27-dihydroxydo-triaconta-14,17,21,23,25,29-hexaenoic acid], the TMPRSS2 expression (TMPRSS2) was “decreased”, the Furin expression (injured rat cornea; cornea injury model (FIG. 57)) was “remarkably decreases” and the “51 injury-upregulated genes (cytokines, SASP, NFkB inflammatory)” value (injured rat cornea; [1]) was “most are inhibited”. The “Il6 and Vegfa expression” value (injured rat cornea; [1]) was “reduced”, the “integrin gene expression (Itga5 and Itgb 1)” value (injured rat cornea; [1]) was “significantly decreased; also recorded: decrease” and the “transcriptomic profile in PCA plot relative to control cornea” value (injured rat cornea; [1]) was “nearest to the normal cornea”. The “Cdkn2a gene expression (p16INK4a)” value (injured rat cornea; rat cornea, RNA-seq normalized counts, 14 days after injury) was “decrease”.
